Measured values: US12642771B2, “Compositions comprising PGI2-receptor agonists and processes for the preparation thereof” (Arena Pharmaceuticals, Inc., priority 2017, dated 2026)

Experiment: Release (dissolution) profile of capsules, USP Apparatus 2 (paddle) at 50 rpm, 500 mL aqueous sodium phosphate 0.05 M, pH 6.8
Type: physicochemical
Conditions: for Release rate (percentage of Compound 1 released): Table 3b; for mean value (n =4) of % of Compound 1 released: Table 3g-1, Storage Time = 0; for mean value (n =4) of % of Compound 1 released / mean value (n = 41) of % of Compound 1 released: size 4 capsule 0.5 mg Compound 1, Poloxamer 188:food grade GMS 70:30; for mean value (n = 41) of % of Compound 1 released: Table 3g-2 first line (title: Storage Time = 2 weeks; values equal Table 3g-1)
From the text: USP Apparatus 2 (Paddle Apparatus) is described, for example, in the United States Pharmacopeial Convention, Feb. 1, 2012, Chapter <711> (“Dissolution”), incorporated by reference herein in its entirety. See http://www.usp.org/sites/default/files/usp_pdf/EN/USPNF/revisions/m99470-gc_711.pdf. The assembly from Apparatus 1 is used, except that a paddle formed from a blade and a shaft is used as the stirring element. The shaft is positioned so that its axis is not more than 2 mm from the vertical axis of the vessel at any point and rotates smoothly without significant wobble that could affect the results. The vertical center line of the blade passes through the axis of the shaft so that the bottom of the blade is flush with the bottom of the shaft. A distance of 25±2 mm between the bottom of the blade and the inside bottom of the vessel is maintained during the test. The metallic or suitably inert, rigid blade and shaft comprise a single entity. A suitable two-part detachable design may be used provided the assembly remains firmly engaged during the test. The paddle blade and shaft may be coated with a suitable coating so as to make them inert. The dosage unit is allowed to sink to the bottom of the vessel before rotation of the blade is started. A small, loose piece of nonreactive material, such as not more than a few turns of wire helix, may be attached to dosage units that would otherwise float. Other validated sinker devices may be used.
Unless otherwise specified, the release profiles for capsules were measured using USP Apparatus 2 (paddle).
All release profiles disclosed in Tables 3c-3p were measured with USP Apparatus 2 (paddle) at 50 rpm in 500 mL of aqueous sodium phosphate at a concentration of 0.05 M (pH=6.8). The values in a given table relate to capsules obtained from the same batch. Values shown represent mean values over a number of dissolution tests (“n” in each table) in each case.

**Q.** For `O=C(O)COC[C@H]1CC[C@H](COC(=O)N(c2ccccc2)c2ccc(Cl)cc2)CC1` [Compound 1, 2-(((1r,4r)-4-(((4-chlorophenyl)(phenyl)carbamoyloxy)methyl)cyclohexyl)methoxy)acetic acid], which “Release rate (percentage of Compound 1 released)” value (capsule 0.04 mg Compound 1, Poloxamer 188:food grade GMS 50:50, 4 wks storage (40° C.), 240 min) is on record?
**A.** Its value is 70.3%.

**Q.** And the “Release rate (percentage of Compound 1 released)” value (capsule 0.04 mg Compound 1, Poloxamer 188:food grade GMS 50:50, 4 wks storage (40° C.), 360 min)?
**A.** The value was 87.5%.

**Q.** And the “Release rate (percentage of Compound 1 released)” value (capsule 0.04 mg Compound 1, Poloxamer 188:food grade GMS 50:50, 4 wks storage (40° C.), 480 min)?
**A.** Its value is 90.9%.

**Q.** What about the “Release rate (percentage of Compound 1 released)” value (capsule 0.04 mg Compound 1, Poloxamer 188:food grade GMS 50:50, 4 wks storage (40° C.), 600 min) of the same compound?
**A.** Its value is 93.2%.

**Q.** What about the “Release rate (percentage of Compound 1 released)” value (capsule 0.04 mg Compound 1, Poloxamer 188:food grade GMS 50:50, 4 wks storage (40° C.), 720 min) of the same compound?
**A.** The value was 95.0%.

**Q.** And the “Release rate (percentage of Compound 1 released)” value (capsule 0.04 mg Compound 1, Poloxamer 188:food grade GMS 50:50, 4 wks storage (40° C.), 735 min)?
**A.** Its value is 94.3%.

**Q.** What about the “Release rate (percentage of Compound 1 released)” value (capsule 0.04 mg Compound 1, Poloxamer 188:food grade GMS 50:50, 18 hrs curing (50° C.), 30 min) of the same compound?
**A.** The value was 14.3%.

**Q.** And the “Release rate (percentage of Compound 1 released)” value (capsule 0.04 mg Compound 1, Poloxamer 188:food grade GMS 50:50, 18 hrs curing (50° C.), 60 min)?
**A.** The value was 21.8%.

**Q.** And the “Release rate (percentage of Compound 1 released)” value (capsule 0.04 mg Compound 1, Poloxamer 188:food grade GMS 50:50, 18 hrs curing (50° C.), 120 min)?
**A.** Its value is 39.9%.

**Q.** And the “Release rate (percentage of Compound 1 released)” value (capsule 0.04 mg Compound 1, Poloxamer 188:food grade GMS 50:50, 18 hrs curing (50° C.), 180 min)?
**A.** The value was 56.3%.

**Q.** What about the “Release rate (percentage of Compound 1 released)” value (capsule 0.04 mg Compound 1, Poloxamer 188:food grade GMS 50:50, 18 hrs curing (50° C.), 240 min) of the same compound?
**A.** Its value is 72.6%.

**Q.** And the “Release rate (percentage of Compound 1 released)” value (capsule 0.04 mg Compound 1, Poloxamer 188:food grade GMS 50:50, 18 hrs curing (50° C.), 360 min)?
**A.** The value was 89.2%.

**Q.** And the “Release rate (percentage of Compound 1 released)” value (capsule 0.04 mg Compound 1, Poloxamer 188:food grade GMS 50:50, 18 hrs curing (50° C.), 480 min)?
**A.** Its value is 93.5%.

**Q.** What about the “Release rate (percentage of Compound 1 released)” value (capsule 0.04 mg Compound 1, Poloxamer 188:food grade GMS 50:50, 18 hrs curing (50° C.), 600 min) of the same compound?
**A.** The value was 95.7%.

**Q.** What about the “Release rate (percentage of Compound 1 released)” value (capsule 0.04 mg Compound 1, Poloxamer 188:food grade GMS 50:50, 18 hrs curing (50° C.), 720 min) of the same compound?
**A.** The value was 96.9%.

**Q.** What about the “Release rate (percentage of Compound 1 released)” value (capsule 0.04 mg Compound 1, Poloxamer 188:food grade GMS 50:50, 18 hrs curing (50° C.), 735 min) of the same compound?
**A.** Its value is 95.6%.

**Q.** What about the “Release rate (percentage of Compound 1 released)” value (capsule 0.04 mg Compound 1, Poloxamer 188:food grade GMS 50:50, T = 0 (pre-curing), 30 min) of the same compound?
**A.** The value was 11.0%.

**Q.** And the “Release rate (percentage of Compound 1 released)” value (capsule 0.04 mg Compound 1, Poloxamer 188:food grade GMS 50:50, T = 0 (pre-curing), 60 min)?
**A.** Its value is 18.3%.

**Q.** And the “Release rate (percentage of Compound 1 released)” value (capsule 0.04 mg Compound 1, Poloxamer 188:food grade GMS 50:50, T = 0 (pre-curing), 120 min)?
**A.** The value was 30.1%.

**Q.** And the “Release rate (percentage of Compound 1 released)” value (capsule 0.04 mg Compound 1, Poloxamer 188:food grade GMS 50:50, T = 0 (pre-curing), 180 min)?
**A.** The value was 39.6%.

**Q.** And the “Release rate (percentage of Compound 1 released)” value (capsule 0.04 mg Compound 1, Poloxamer 188:food grade GMS 50:50, T = 0 (pre-curing), 240 min)?
**A.** Its value is 48.8%.

**Q.** What about the “Release rate (percentage of Compound 1 released)” value (capsule 0.04 mg Compound 1, Poloxamer 188:food grade GMS 50:50, T = 0 (pre-curing), 360 min) of the same compound?
**A.** The value was 64.1%.

**Q.** What about the “Release rate (percentage of Compound 1 released)” value (capsule 0.04 mg Compound 1, Poloxamer 188:food grade GMS 50:50, T = 0 (pre-curing), 480 min) of the same compound?
**A.** Its value is 72.7%.

**Q.** And the “Release rate (percentage of Compound 1 released)” value (capsule 0.04 mg Compound 1, Poloxamer 188:food grade GMS 50:50, T = 0 (pre-curing), 600 min)?
**A.** Its value is 79.8%.

**Q.** What about the “Release rate (percentage of Compound 1 released)” value (capsule 0.04 mg Compound 1, Poloxamer 188:food grade GMS 50:50, T = 0 (pre-curing), 720 min) of the same compound?
**A.** The value was 83.1%.

**Q.** And the “Release rate (percentage of Compound 1 released)” value (capsule 0.04 mg Compound 1, Poloxamer 188:food grade GMS 50:50, T = 0 (pre-curing), 735 min)?
**A.** Its value is 84.6%.

**Q.** And the “mean value (n =4) of % of Compound 1 released” value (30 min)?
**A.** The value was 33.0%.

**Q.** And the “mean value (n =4) of % of Compound 1 released” value (45 min)?
**A.** The value was 64.2%.

**Q.** What about the “mean value (n =4) of % of Compound 1 released” value (60 min) of the same compound?
**A.** The value was 86.0%.

**Q.** And the “mean value (n = 41) of % of Compound 1 released” value (30 min)?
**A.** Its value is 33.0%.

**Q.** What about the “mean value (n = 41) of % of Compound 1 released” value (45 min) of the same compound?
**A.** The value was 64.2%.

**Q.** And the “mean value (n = 41) of % of Compound 1 released” value (60 min)?
**A.** Its value is 86.0%.

**Q.** And the “release profile after curing and storage” value (capsule 0.04 mg Compound 1, Poloxamer 188:food grade GMS 50:50, cured 18 hours, one, two and four weeks post-curing (FIG. 6))?
**A.** Its value is “remained substantially the same”.

**Q.** What about the “stabilisation of release profile by curing” value (capsule with research grade GMS (lower monoester content) instead of food grade GMS) of the same compound?
**A.** Its value is “curing was not as effective in stabilizing the release profile”.

**Q.** And the “release rate relative to immediate-release composition” value (capsules 0.5 mg Compound 1, Poloxamer 188:food grade GMS 70:30, 50:50 and 30:70 (FIGS. 8-10))?
**A.** Its value is “slower rate than the immediate-release composition”.
